Results from patent publication US9809808B2, “Antimicrobial agents” (KATHOLIEKE UNIVERSITEIT LEUVEN K.U. LEUVEN R&D, priority 2008, dated 2017).
Values joined by “and” are separate entries in the source; they are usually repeats but may differ in a detail not shown here. Equal entries are not always repeated. Where two headings read alike, the source gives them in different places.

Assays:
[1] = test system: Salmonella typhimurium LT2; type: cell-based; settings: 30 minutes
P. putida G1 [2] = assay: Antibacterial activity of P2gp09 and PKP2gp09 with and without EDTA (30 minutes, colony count); type: cell-based, Pseudomonas putida; settings: 0.5 mM EDTA, no endolysin, 30 minutes
P. aeruginosa Br667 [3] = assay: Antibacterial activity of PSP3gp10 and PKPSP3gp10 with and without EDTA (30 minutes, colony count); type: cell-based, Pseudomonas aeruginosa; settings: 0.5 mM EDTA, no endolysin
P. putida G1 [4] = type: cell-based, Pseudomonas putida
[5] = test system: Pseudomonas aeruginosa PAO1p cells; assay: Effect of different EDTA and endolysin concentrations on antibacterial activity of OBPgpLYS and PKOBPgpLYS; type: cell-based
Protocol: To determine the influence of EDTA on the antibacterial activity of unmodified and modified endolysins the antibacterial activity of the unmodified OBPgpLYS endolysin (SEQ ID NO: 7) and the PKOBPgpLYS endolysin (SEQ ID NO: 61) was tested on Pseudomonas aeruginosa PAO1p cells ([…] et al. J Clin Microbiol., 41(3):1192-1202 (2003)) using different concentrations of EDTA and endolysins. Exponential growing bacterial cells (OD600 nm of 0.6) were 100-fold diluted to a final density of about 10^6/ml and incubated for 30 minutes at room temperature without shaking with unmodified endolysin OBPgpLYS (SEQ ID NO: 7) and modified endolysin PKOBPgpLYS (SEQ ID NO: 61). […] Thereby, the following different EDTA concentrations were used: 0 mM, 0.05 mM, 0.5 mM and 10 mM. […] After incubation cell suspensions were diluted three times (respectively 10^5-10^4-10^3 cells/ml) and 100 μl of each dilution was plated out on LB-medium. […] All samples were replicated in threefold. Averages+/-standard deviations are represented.

Escherichia coli WK6 [6] = assay: Antibacterial activity of P2gp09 and PKP2gp09 with and without EDTA (30 minutes, colony count); type: cell-based; settings: 0.5 mM EDTA, no endolysin, 30 minutes
Protocol: To determine the anti-Gram-negative spectrum of the PK2gp09 endolysin according to SEQ ID NO: 57, a combination of 1.315 μM PK2gp09 endolysin and 0,5 mM EDTA was tested on the clinical P. aeruginosa strains PAO1p and Br667 and on Escherichia coli WK6 (see Table 9). Exponential growing bacterial cells (OD600 nm of 0.6) were 100-fold diluted to a final density of about 10^6/ml of each strain was incubated for 30 minutes at room temperature without shaking with unmodified endolysin P2gp09 (SEQ ID NO: 9) and modified endolysin PKP2gp09 (SEQ ID NO: 57) each in combination without and with 0.5 mM EDTA. […] As a control each strain was also incubated for 30 minutes with 0.5 mM EDTA (in same buffer as outlined above) but no endolysin. After incubation cell suspensions were diluted three times (respectively 10^5-10^4-10^3 cells/ml) and 100 μl of each dilution was plated out on LB-medium.

P. aeruginosa Br667 [7] = assay: as above; type: cell-based, Pseudomonas aeruginosa; settings: 0.5 mM EDTA, no endolysin, 30 minutes
Escherichia coli WK6 [8] = type: cell-based
[9] = test system: Salmonella typhimurium LT2; assay: Antibacterial activity of PSP3gp10 and PKPSP3gp10 with and without EDTA (30 minutes, colony count); type: cell-based; settings: 0.5 mM EDTA, no endolysin
Protocol: (§1) To determine the anti-Gram-negative spectrum of the PKPSP3gp10 endolysin according to SEQ ID NO: 53, a combination of 1.315 μM PKPSP3gp10 endolysin and 0.5 mM EDTA was tested on the clinical P. aeruginosa strains PAO1p and Br667, Escherichia coli WK6, and Salmonella typhimurium (see Table 5). Exponential growing bacterial cells (OD600 nm of 0.6) were 100-fold diluted to a final density of about 10^6/ml of each strain were incubated for 30 minutes at room temperature without shaking with unmodified endolysin […] (SEQ ID NO: 8) and modified endolysin PKPSP3gp10 (SEQ ID NO: 53) each in combination without and with 0.5 mM EDTA. […] As a control each strain was also incubated for 30 minutes with 0.5 mM EDTA (in same buffer as outlined above) but no endolysin.
(§2) After incubation cell suspensions were diluted three times (respectively 10^5-10^4-10^3 cells/ml) and 100 μl of each dilution was plated out on LB-medium.

Escherichia coli WK6 [10] = assay: as above; type: cell-based; settings: 0.5 mM EDTA, no endolysin
Protocol: as §1, §2

P. aeruginosa Br667 [11] = type: cell-based, Pseudomonas aeruginosa
[12] = test system: Burkholderia pseudomallei; type: cell-based; settings: 30 minutes
[13] = test system: Gram-negative strains of Table 12; type: cell-based
[14] = 0.5 mM EDTA, no endolysin, 30 minutes
[15] = 1.313 μM endolysin + 0.5 mM EDTA
[16] = 1.313 μM endolysin, no EDTA, 30 minutes
[17] = 0.013 μM endolysin, 0 mM EDTA-Na2, 30 minutes
[18] = 0.013 μM endolysin, 0.5 mM EDTA-Na2, 30 minutes
[19] = 0.131 μM endolysin, 0 mM EDTA-Na2, 30 minutes
[20] = 0.131 μM endolysin, 0.5 mM EDTA-Na2, 30 minutes
[21] = 1.315 μM endolysin, 0.05 mM EDTA-Na2, 30 minutes
[22] = 1.315 μM endolysin, 0.5 mM EDTA-Na2, 30 minutes
[23] = 1.315 μM endolysin, 10 mM EDTA-Na2, 30 minutes

| Compound | relative inactivation in logarithmic units (log10N0/Ni) [1, 15] | relative inactivation in logarithmic units (log10N0/Ni) ([1]; 1.313 μM endolysin, no EDTA) | relative inactivation in logarithmic units (log10N0/Ni) [12, 15] | relative inactivation in logarithmic units (log10N0/Ni) ([12]; 1.313 μM endolysin, no EDTA) | relative inactivation in logarithmic units (log10N0/Ni) (P. putida G1 [4]) | relative inactivation in logarithmic units (log10N0/Ni) (P. putida G1 [4]; [16]) | relative inactivation in logarithmic units (log10N0/Ni) [5, 17] | relative inactivation in logarithmic units (log10N0/Ni) [5, 18] | relative inactivation in logarithmic units (log10N0/Ni) [5, 19] | relative inactivation in logarithmic units (log10N0/Ni) [5, 20] | relative inactivation in logarithmic units (log10N0/Ni) [5, 21] | relative inactivation in logarithmic units (log10N0/Ni) [5, 22] | relative inactivation in logarithmic units (log10N0/Ni) [5, 23] | relative inactivation in logarithmic units (log10N0/Ni) (Escherichia coli WK6 [8]) | relative inactivation in logarithmic units (log10N0/Ni) (Escherichia coli WK6 [8]; [16]) | relative inactivation in logarithmic units (log10N0/Ni) (P. aeruginosa Br667 [11]) | relative inactivation in logarithmic units (log10N0/Ni) (P. aeruginosa Br667 [11]; [16]) | other results |
| --- | --- | --- | --- | --- | --- | --- | --- | --- | --- | --- | --- | --- | --- | --- | --- | --- | --- | --- |
| O=C([O-])CN(CCN(CC(=O)[O-])CC(=O)O)CC(=O)O.[Na+].[Na+] [EDTA, reference compound] | – | – | – | – | – | – | – | – | – | – | – | – | – | – | – | – | – | relative inactivation in logarithmic units (log10N0/Ni) ([1]; 0.5 mM EDTA, no endolysin): 0.054 +/− 0.048 logarithmic units; relative inactivation in logarithmic units (log10N0/Ni) (P. putida G1 [2]): 0.072 logarithmic units; relative inactivation in logarithmic units (log10N0/Ni) (P. aeruginosa Br667 [3]): 0.223 +/− 0.038 logarithmic units; relative inactivation in logarithmic units (log10N0/Ni) (P. putida G1 [4]; [14]): 0.412 +/− 0.055 logarithmic units; relative inactivation in logarithmic units (log10N0/Ni) ([5]; no endolysin, 0.05 mM EDTA-Na2, 30 minutes): 0.028 +/− 0.008 log units; relative inactivation in logarithmic units (log10N0/Ni) ([5]; no endolysin, 0.5 mM EDTA-Na2, 30 minutes): 0.130 +/− 0.023 log units; relative inactivation in logarithmic units (log10N0/Ni) ([5]; no endolysin, 10 mM EDTA-Na2, 30 minutes): 1.827 +/− 0.052 log units; relative inactivation in logarithmic units (log10N0/Ni) (Escherichia coli WK6 [6]): 0.153 logarithmic units; relative inactivation in logarithmic units (log10N0/Ni) (P. aeruginosa Br667 [7]): 0.003 logarithmic units; relative inactivation in logarithmic units (log10N0/Ni) (Escherichia coli WK6 [8]; [14]): 0.592 +/− 0.113 logarithmic units; relative inactivation in logarithmic units (log10N0/Ni) [9]: 0.104 +/− 0.049 logarithmic units; relative inactivation in logarithmic units (log10N0/Ni) (Escherichia coli WK6 [10]): 0.393 +/− 0.035 logarithmic units; relative inactivation in logarithmic units (log10N0/Ni) (P. aeruginosa Br667 [11]; [14]): 0.031 +/− 0.023 logarithmic units |
| OBPgpLYS: SEQ ID NO: 7: unmodified modular endolysin of 328 amino acid residues originating from Pseudomonas putida phage OBP | 0.774 +/− 0.052 logarithmic units | 0.076 +/− 0.011 logarithmic units | 4.08 +/− 0.301 logarithmic units | 0.997 +/− 0.131 logarithmic units | 4.891 +/− 0.000 logarithmic units | 0.141 +/− 0.027 logarithmic units | 0.956 +/− 0.110 log units | 4.626 +/− 0.287 log units | 2.158 +/− 0.027 log units | 4.599 +/− 0.275 log units | 2.762 +/− 0.091 log units | 4.357 +/− 1.857 log units | 4.888 +/− 0.275 log units | 1.179 +/− 0.200 logarithmic units | 0.681 +/− 0.032 logarithmic units | 3.144 +/− 0.223 logarithmic units | 1.082 +/− 0.083 logarithmic units | – |
| PKOBPgpLYS: SEQ ID NO: 61: OBPgpLYS (SEQ ID NO: 7) with N-terminal peptide stretch KRKKRKKRK (SEQ ID NO: 11) | 0.908 +/− 0.037 logarithmic units | 0.127 +/− 0.013 logarithmic units | >4.861 logarithmic units | 1.806 +/− 0.287 logarithmic units | >4.891 logarithmic units | 0.904 +/− 0.079 logarithmic units | 0.992 +/− 0.181 log units | 5.204 +/− 0.000 log units | 2.529 +/− 0.184 log units | 5.671 +/− 0.000 log units | 4.145 +/− 0.015 log units | > 5.69 log units and >5.687 log units | > 5.69 log units and >5.687 log units | 1.695 +/− 0.147 logarithmic units | 1.434 +/− 0.018 logarithmic units | 5.272 +/− 0.573 logarithmic units | 1.163 +/− 0.063 logarithmic units | effect compared to unmodified OBPgpLYS (in words) [13]: added effect; interaction with EDTA (in words) [13]: clear synergistic effect; Δ, difference of activity between OBPgpLYS and PKOBPgpLYS samples ([5]; 0.013 μM endolysin, 0 mM EDTA-Na2): 0.036 log units; Δ, difference of activity between OBPgpLYS and PKOBPgpLYS samples ([5]; 0.013 μM endolysin, 0.5 mM EDTA-Na2): 0.578 log units; Δ, difference of activity between OBPgpLYS and PKOBPgpLYS samples ([5]; 0.131 μM endolysin, 0 mM EDTA-Na2): 0.371 log units; Δ, difference of activity between OBPgpLYS and PKOBPgpLYS samples ([5]; 0.131 μM endolysin, 0.5 mM EDTA-Na2): 1.072 log units; Δ, difference of activity between OBPgpLYS and PKOBPgpLYS samples ([5]; 1.315 μM endolysin, 0 mM EDTA-Na2): 0.5 log units and 0.548 log units; relative inactivation in logarithmic units (log10N0/Ni) ([5]; 1.315 μM endolysin, 0 mM EDTA-Na2, 30 minutes): 3.079 +/− 0.015 log units; Δ, difference of activity between OBPgpLYS and PKOBPgpLYS samples ([5]; 1.315 μM endolysin, 0.05 mM EDTA-Na2): 1.383 log units; Δ, difference of activity between OBPgpLYS and PKOBPgpLYS samples ([5]; 1.315 μM endolysin, 0.5 mM EDTA-Na2): >1.330 log units; Δ, difference of activity between OBPgpLYS and PKOBPgpLYS samples ([5]; 1.315 μM endolysin, 10 mM EDTA-Na2): >0.799 log units |
